In patent US20220372014A1, “NEUROPROTECTIVE COMPOUNDS AND METHODS OF USE THEREOF” (The Johns Hopkins University, priority 2019, published 2022):

How the values were obtained:
[1] = target: T1, MIF (Homo sapiens, UniProt P14174); test: Nuclease assay of Example 3 (MIF inhibitory activity, Table 4); assay type: biochemical; design: (%) inhibition of MIF nuclease activity: concentration or dose not given beside the values; settings: nuclease assay of Example 3
T1 sequence (P14174 1-115): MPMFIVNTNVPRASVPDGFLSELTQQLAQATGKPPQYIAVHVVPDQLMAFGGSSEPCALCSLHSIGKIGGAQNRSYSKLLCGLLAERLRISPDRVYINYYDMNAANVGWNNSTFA
Procedure: A rapafucin library was synthesized as described in WO2017/136708 and Guo et al. (2018) Nat. Chem. 11:254-63. The hybrid macrocyclic library consisted of 45,000 compounds in pools of 15 individual compounds. The library compounds were screened for MIF inhibitory activity using a nuclease assay as detailed in FIG. 1 and below.
Nuclease assay: Human genomic DNA (200 ng/reaction, Promega), pcDNA (200 ng/reaction) or PS^30 and its related and non-related substrates (1 μM) was incubated with wild type MIF or its variants at a final concentration of 0.25-8 μM as indicated in 10 mM Tris-HCl buffer (pH 7.0) containing 10 mM MgCl2 and 1 mM DTT or specific buffer as indicated, for 1 h (with pcDNA and small DNA substrates) or 4 h (with human genomic DNA) at 37° C. The reaction was terminated with loading buffer containing 10 mM EDTA and incubation on ice. The human genomic DNA samples were immediately separated on a 1.2% pulse field certified agarose in 0.5×TBE buffer with initial switch time of 1.5 s and a final switch time of 3.5 s for 12 h at 6 V/cm. pcDNA samples were determined by 1% agarose gel. Small DNA substrates were separated on 15% or 25% TBE-urea polyacrylamide (PAGE) gel or 20% TBE PAGE gel. Then gel was stained with 0.5 μg/ml Ethidium Bromide (EtBr) followed by electrophoretic transfer to nylon membrane. Then, Biotin-labeled DNA is further detected by chemiluminescence using Chemiluminescent Nucleic Acid Detection Module (Thermo Scientific).
Structure-activity relationship (SAR) analysis was then conducted on the compounds identified as having MIF inhibitory activity. Compounds having the structure of Formula (I) were then synthesized as shown in Example 1 and tested for MIF inhibitory activity using the nuclease assay described herein and neuronal protection via a cell death assay as detailed below.

[2] = system: HeLa cells or neuronal cells; test: Cell death assay of Example 3 (MNNG, alamarBlue; protection against parthanatos, Table 4); assay type: cell-based; settings: 1 μM test compound, MNNG-induced cell death, alamarBlue
Procedure: Cell death assay: 200 μl of cells (HeLa cells or neuronal cells) culture (1×10^4 cells/well) were plated into the wells of a sterile 96-well cell culture plate. The cells were incubated for 18 hours at 37° C. The medium was removed and changed with 100 μl/well of 1 μM test compound. Incubate for 1 hours at 37° C. Ten μl of 500 μM MNNG (N-Methyl-N′-nitro-N-nitrosoguanidine) was added to each well. The medium was aspirated well and incubated for 15 min at 37° C. The cells were washed with the fresh medium. The medium was changed with 1 μM of test compound and incubated for 18 hours at 37° C. 10 μl/well of alamarBlue reagent was added directly to the well and incubated for 1 to 4 hours at 37° C. Fluorescence was measured using a fluorescence excitation wavelength of 560 nm and emission at 590 nm. The percentage of cell death was determined as the ratio of live to dead cells compared with the percentage of cell death in control wells to account for cell death attributed to mechanical stimulation of the cultures.

Structure (SMILES) | (%) inhibition of MIF nuclease activity [1] | (%) inhibition of cell death [2]
COc1ccc(CC[C@H]2OC(=O)[C@@H]3CCCCN3C(=O)C(=O)C(C)(C)COC(=O)C=CCCN(C)C(=O)[C@H](CC3CCCCC3)NC(=O)[C@H](COC(C)(C)C)N(C)C(=O)C(c3ccccc3)NC(=O)[C@H](C)N(C)C(=O)COc3cccc2c3)cc1OC (stereo partly drawn) [compound 57] | 18.4% | 59.3%
COc1ccc(CC[C@H]2OC(=O)[C@@H]3CCCCN3C(=O)C(=O)C(C)(C)COC(=O)C=CCCN(C)C(=O)[C@@H]3CCCN3C(=O)[C@H](COC(C)(C)C)N(C)C(=O)[C@H](C)NC(=O)[C@H](C)N(C)C(=O)COc3cccc2c3)cc1OC [compound 100] | 13.4% | 26.1%
COc1ccc(CC[C@H]2OC(=O)[C@@H]3CCCCN3C(=O)C(=O)C(C)(C)COC(=O)C=CCCN(C)C(=O)[C@@H]3CCCN3C(=O)[C@H](COC(C)(C)C)N(C)C(=O)[C@H](Cc3ccncc3)NC(=O)[C@H](C)N(C)C(=O)COc3cccc2c3)cc1OC [compound 104] | 13.2% | 20.4%
COc1ccc(CC[C@H]2OC(=O)[C@@H]3CCCCN3C(=O)C(=O)C(C)(C)COC(=O)C=CCCN(C)C(=O)[C@@H](Cc3ccccc3)NC(=O)[C@H](COC(C)(C)C)N(C)C(=O)C(c3ccccc3)NC(=O)[C@H](C)N(C)C(=O)COc3cccc2c3)cc1OC (stereo partly drawn) [compound 54] | 15.9% | 56.0%
COc1cc(F)c(CC[C@H]2OC(=O)[C@@H]3CCCCN3C(=O)C(=O)C(C)(C)COC(=O)C=CCCN(C)C(=O)[C@@H]3CCCN3C(=O)[C@H](COC(C)(C)C)N(C)C(=O)C(c3ccccc3)NC(=O)[C@H](C)N(C)C(=O)COc3cccc2c3)cc1OC (stereo partly drawn) [compound 109] | 9.3% | 52.9%
COc1ccc(CC[C@H]2OC(=O)[C@@H]3CCCCN3C(=O)C(=O)C(C)(C)COC(=O)C=CCCN(C)C(=O)[C@H](c3ccccc3)NC(=O)[C@H](COC(C)(C)C)N(C)C(=O)C(c3ccccc3)NC(=O)[C@H](C)N(C)C(=O)COc3cccc2c3)cc1OC (stereo partly drawn) [compound 60] | 59.4% | 55.4%
COc1ccc(CC[C@H]2OC(=O)[C@@H]3CCCCN3C(=O)C(=O)C(C)(C)COC(=O)C=CCCN(C)C(=O)[C@@H](CC(C)C)NC(=O)[C@H](C(C)C)N(C)C(=O)[C@@H](Cc3ccccc3)NC(=O)[C@H](CC(C)C)N(C)C(=O)CCC(=O)Nc3cccc2c3)cc1OC [compound 82] | 8.5% | 47.0%
COc1ccc(CC[C@H]2OC(=O)[C@@H]3CCCCN3C(=O)C(=O)C(C)(C)COC(=O)C=CCCN(C)C(=O)[C@@H]3CC(O)CN3C(=O)[C@H](COC(C)(C)C)N(C)C(=O)C(c3ccccc3)NC(=O)[C@H](C)N(C)C(=O)COc3cccc2c3)cc1OC (stereo partly drawn) [compound 93] | 14.6% | 66.8%
COc1ccc(CC[C@H]2OC(=O)[C@@H]3CCCCN3C(=O)C(=O)C(C)(C)COC(=O)C=CCCN(C)C(=O)[C@@H]3CCCN3C(=O)[C@H](COC(C)(C)C)N(C)C(=O)C(c3ccccc3)NC(=O)[C@H](Cc3ccc(O)cc3)N(C)C(=O)COc3cccc2c3)cc1OC (stereo partly drawn) [compound 148] | 12.0% | 50.7%
C=CC(=O)OCC(C)(C)C(=O)C(=O)N1CCCC[C@H]1C(=O)O[C@H](CCc1ccc(OC)c(OC)c1)c1cncc(OCC(=O)N(C)[C@@H](C)C(=O)NC(C(=O)N(C)[C@@H](COC(C)(C)C)C(=O)N2CCC[C@H]2C(=O)N(C)CC/C=C\CCO)c2ccccc2)c1 (stereo partly drawn) [compound 129] | 29.5% | 43.0%
COc1ccc(CC[C@H]2OC(=O)[C@@H]3CCCCN3C(=O)C(=O)C(C)(C)COC(=O)C=CCCN(C)C(=O)[C@H](C)N(C)C(=O)[C@H](COC(C)(C)C)N(C)C(=O)C(c3ccccc3)NC(=O)[C@H](C)N(C)C(=O)COc3cccc2c3)cc1OC (stereo partly drawn) [compound 94] | 12.0% | 12.1%
COc1ccc(CC[C@H]2OC(=O)[C@@H]3CCCCN3C(=O)C(=O)C(C)(C)COC(=O)C=CCCN(C)C(=O)[C@H](Cc3ccc(F)cc3)NC(=O)[C@H](COC(C)(C)C)N(C)C(=O)C(c3ccccc3)NC(=O)CN(C)C(=O)COc3cccc2c3)cc1OC (stereo partly drawn) [compound 40] | 37.4% | 53.8%
COc1ccc(CC[C@H]2OC(=O)[C@@H]3CCCCN3C(=O)C(=O)C(C)(C)COC(=O)C=CCCN(C)C(=O)[C@H](C)NC(=O)[C@H](COC(C)(C)C)N(C)C(=O)[C@H](Cc3ccc4ccccc4c3)NC(=O)[C@H](C)N(C)C(=O)COc3cccc2c3)cc1OC [compound 17] | 63.7% | 78.3%
COc1cc(O)c(CC[C@H]2OC(=O)[C@@H]3CCCCN3C(=O)C(=O)C(C)(C)COC(=O)C=CCCN(C)C(=O)[C@@H]3CCCN3C(=O)[C@H](COC(C)(C)C)N(C)C(=O)C(c3ccccc3)NC(=O)[C@H](C)N(C)C(=O)COc3cccc2c3)cc1OC (stereo partly drawn) [compound 116] | −4.7% | 50.9%
COc1ccc(CC[C@H]2OC(=O)[C@@H]3CCCCN3C(=O)C(=O)C(C)(C)COC(=O)C=CCCN(C)C(=O)[C@H](CC(C)C)NC(=O)[C@H](COC(C)(C)C)N(C)C(=O)C(c3ccccc3)NC(=O)CN(C)C(=O)COc3cccc2c3)cc1OC (stereo partly drawn) [compound 36] | 18.5% | 51.0%
COc1ccc(CC[C@H]2OC(=O)[C@@H]3CCCCN3C(=O)C(=O)C(C)(C)COC(=O)C=CCCN(C)C(=O)[C@H](CC3CCCCC3)NC(=O)[C@H](Cc3ccccc3)N(C)C(=O)[C@@H](C)NC(=O)CN(C)C(=O)COc3cccc2c3)cc1OC [compound 72] | 21.2% | 55.3%
COc1ccc(CC[C@H]2OC(=O)[C@@H]3CCCCN3C(=O)C(=O)C(C)(C)COC(=O)C=CCCN(C)C(=O)[C@H](Cc3ccccc3)NC(=O)[C@H](COC(C)(C)C)N(C)C(=O)[C@@H](CC(C)C)NC(=O)CN(C)C(=O)COc3cccc2c3)cc1OC [compound 8] | 31.3% | 61.6%
COc1ccc(CC[C@H]2OC(=O)[C@@H]3CCCCN3C(=O)C(=O)C(C)(C)COC(=O)C=CCCN(C)C(=O)[C@@H]3CCCN3C(=O)[C@H](COCc3ccccc3)N(C)C(=O)C(c3ccccc3)NC(=O)[C@H](C)N(C)C(=O)COc3cccc2c3)cc1OC (stereo partly drawn) [compound 96] | 32.7% | 69.1%
COc1ccc(CC[C@H]2OC(=O)[C@@H]3CCCCN3C(=O)C(=O)C(C)(C)COC(=O)C=CCCN(C)C(=O)[C@@H]3CCCN3C(=O)[C@H](COC(C)(C)C)N(C)C(=O)[C@H](Cc3ccc(O)cc3)N(C)C(=O)[C@H](C)NC(=O)COc3cccc2c3)cc1OC [compound 141] | 9.2% | 46.8%
COc1ccc(CC[C@H]2OC(=O)[C@@H]3CCCCN3C(=O)C(=O)C(C)(C)COC(=O)C=CCCN(C)C(=O)[C@@H]3CCCN3C(=O)[C@H](COC(=O)CCC(=O)OCCOCCOCCOCCNC(=O)CCCCC3SC[C@H]4NC(=O)N[C@@H]34)N(C)C(=O)C(c3ccccc3)NC(=O)[C@H](C)N(C)C(=O)COc3cccc2c3)cc1OC (stereo partly drawn) [compound 130] |  | 48.2%
